Data as given in patent US10988477B2 (Merck Patent GmbH, priority 2018, dated 2021).
pIC50, pKi: −log10 of the molar value.

Legend:
[1] = biological target: intracellular GCN2 (phosphorylation of the GCN2 substrate eIF2α) (Homo sapiens, UniProt Q9P2K8); experiment: GCN2 cellular inhibition assay (AlphaScreen SureFire P-eIF2α Ser51, borrelidin-treated U2OS cells); format: cell-based; conditions: compounds of Formula IV; biomarker assay, phosphorylated eIF2α Ser51 in borrelidin-treated U2OS cells
intracellular GCN2 (phosphorylation of the GCN2 substrate eIF2α), sequence (Q9P2K8 whole entry): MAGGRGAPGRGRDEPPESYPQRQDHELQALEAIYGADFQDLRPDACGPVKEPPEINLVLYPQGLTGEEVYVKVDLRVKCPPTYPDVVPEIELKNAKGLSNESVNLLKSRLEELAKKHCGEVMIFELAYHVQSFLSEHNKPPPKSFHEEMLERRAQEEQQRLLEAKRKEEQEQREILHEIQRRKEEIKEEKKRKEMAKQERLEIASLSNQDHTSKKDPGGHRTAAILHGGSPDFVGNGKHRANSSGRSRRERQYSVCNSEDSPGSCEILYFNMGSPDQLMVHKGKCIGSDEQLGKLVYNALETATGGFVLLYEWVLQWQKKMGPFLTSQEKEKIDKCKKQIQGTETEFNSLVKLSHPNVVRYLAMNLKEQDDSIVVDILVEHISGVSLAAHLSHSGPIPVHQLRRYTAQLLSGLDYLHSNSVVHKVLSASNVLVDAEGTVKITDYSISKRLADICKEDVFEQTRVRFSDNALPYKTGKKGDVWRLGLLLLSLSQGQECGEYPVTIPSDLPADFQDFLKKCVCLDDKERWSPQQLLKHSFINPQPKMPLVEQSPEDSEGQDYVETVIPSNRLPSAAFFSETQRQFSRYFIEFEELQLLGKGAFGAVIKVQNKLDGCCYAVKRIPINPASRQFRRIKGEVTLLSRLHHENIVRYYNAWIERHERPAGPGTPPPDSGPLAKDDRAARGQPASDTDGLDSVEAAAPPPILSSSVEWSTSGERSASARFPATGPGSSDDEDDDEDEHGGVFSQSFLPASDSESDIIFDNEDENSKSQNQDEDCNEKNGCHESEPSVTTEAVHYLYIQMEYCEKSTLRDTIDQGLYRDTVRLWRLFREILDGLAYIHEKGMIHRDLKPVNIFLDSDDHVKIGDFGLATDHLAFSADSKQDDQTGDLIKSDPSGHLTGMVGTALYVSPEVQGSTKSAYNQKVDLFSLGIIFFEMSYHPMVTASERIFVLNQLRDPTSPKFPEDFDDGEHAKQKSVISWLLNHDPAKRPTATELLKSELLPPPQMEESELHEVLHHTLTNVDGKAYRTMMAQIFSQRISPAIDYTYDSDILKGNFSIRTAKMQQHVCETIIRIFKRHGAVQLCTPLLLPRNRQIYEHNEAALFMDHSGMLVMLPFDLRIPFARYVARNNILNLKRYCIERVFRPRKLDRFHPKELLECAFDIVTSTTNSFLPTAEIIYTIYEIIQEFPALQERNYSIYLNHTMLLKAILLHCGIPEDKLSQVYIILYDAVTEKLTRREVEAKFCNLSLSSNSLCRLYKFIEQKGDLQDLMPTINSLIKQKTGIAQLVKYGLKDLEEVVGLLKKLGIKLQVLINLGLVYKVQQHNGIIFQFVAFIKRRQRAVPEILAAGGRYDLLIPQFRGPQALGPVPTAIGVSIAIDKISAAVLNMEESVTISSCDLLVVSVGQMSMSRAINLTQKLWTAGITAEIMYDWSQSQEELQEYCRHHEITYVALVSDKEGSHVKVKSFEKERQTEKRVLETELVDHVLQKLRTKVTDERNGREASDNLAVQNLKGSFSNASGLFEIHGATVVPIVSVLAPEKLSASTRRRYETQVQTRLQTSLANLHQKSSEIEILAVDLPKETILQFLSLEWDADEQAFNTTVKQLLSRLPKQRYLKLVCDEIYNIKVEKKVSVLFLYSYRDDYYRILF
Procedure, shortened: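 Compound effect on GCN2 is gauged by eIF2α Ser51 phosphorylation in borrelidin-challenged U2OS cells (10 μM, 1 h). Top compound level is 40 μM final.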

[2] = biological target: GCN2 kinase (Homo sapiens, UniProt Q9P2K8); experiment: GCN2 enzyme inhibition assay (Transcreener ADP2 fluorescence polarization); format: biochemical; conditions: Enzyme activity for compounds of Formula IV; Ki(app), 280 μM ATP, 25° C.
GCN2 kinase, sequence (Q9P2K8 whole entry): as above
Procedure, shortened: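 ADP formation read by Transcreener FP after a 1 h, 25 °C kinase reaction containing 280 μM ATP, 200 μM (RS)7 substrate and 4 nM GCN2, pH 7.5 Tris buffer. Compounds (0–8 μM final) were added 10 min before ATP. Percent inhibition gave IC50 and apparent Ki via tight-binding fit.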

Row | Compound | pIC50 [1] | pKi [2]
1 | FC(F)(F)c1cn2c(-c3nccc(N4CCCC(c5c[nH]c(Cl)n5)C4)n3)cnc2cn1 (stereo not drawn) [IV-409, 3-(4-(3-(2-Chloro-1H-imidazol-4-yl)piperidin-1-yl)pyrimidin-2-yl)-6-(trifluoromethyl)imidazo[1,2-a]pyrazine] | 5.30 to 6.30 | > 8.00
2 | O=C1CN(c2ccnc(-c3cnc4cnc(C(F)(F)F)cn34)n2)CC(c2cn[nH]c2)N1 (stereo not drawn) [IV-410, 6-(1H-Pyrazol-4-yl)-4-(2-(6-(trifluoromethyl)imidazo[1,2-a]pyrazin-3-yl)pyrimidin-4-yl)piperazin-2-one] | < 5.30 | 7.00 to 8.00
3 | CC1CN(c2ccnc(-c3cnc4cnc(C(F)(F)F)cn34)n2)C(C)C(c2cn[nH]c2)O1 (stereo not drawn) [IV-415, 3,6-Dimethyl-2-(1H-pyrazol-4-yl)-4-(2-(6-(trifluoromethyl)imidazo[1,2-a]pyrazin-3-yl)pyrimidin-4-yl)morpholine] | > 6.30 | > 8.00
4 | CC1CN(c2ccnc(-c3cnc4cnc(C(F)(F)F)cn34)n2)C(C)C(c2cn[nH]c2)O1 (stereo not drawn) [IV-416, 3,6-Dimethyl-2-(1H-pyrazol-4-yl)-4-(2-(6-(trifluoromethyl)imidazo[1,2-a]pyrazin-3-yl)pyrimidin-4-yl)morpholine] | 5.30 to 6.30 | > 8.00
5 | CC1C(c2cn[nH]c2)OCCN1c1nccc(-c2cnc3cnc(C(F)(F)F)cn23)n1 (stereo not drawn) [IV-418, 3-Methyl-2-(1H-pyrazol-4-yl)-4-(4-(6-(trifluoromethyl)imidazo[1,2-a]pyrazin-3-yl)pyrimidin-2-yl)morpholine] | 5.30 to 6.30 | 7.00 to 8.00
6 | CC1CN(c2ncc(F)c(-c3cnc4cnc(C(F)(F)F)cn34)n2)C(C)C(c2cn[nH]c2)N1 (stereo not drawn) [IV-421, 3-(2-(2,5-Dimethyl-3-(1H-pyrazol-4-yl)piperazin-1-yl)-5-fluoropyrimidin-4-yl)-6-(trifluoromethyl)imidazo[1,2-a]pyrazine] | 5.30 to 6.30 | 7.00 to 8.00
7 | CC1CN(c2ncc(F)c(-c3cnc4cnc(C(F)(F)F)cn34)n2)CC(c2cn[nH]c2)N1 (stereo not drawn) [IV-422, 3-(5-Fluoro-2-(3-methyl-5-(1H-pyrazol-4-yl)piperazin-1-yl)pyrimidin-4-yl)-6-(trifluoromethyl)imidazo[1,2-a]pyrazine] | < 5.30 | 6.00 to 7.00
8 | OCCC1CCN(c2ccnc(-c3cnc4cnc(C(F)(F)F)cn34)n2)C1 (stereo not drawn) [IV-435, 2-(1-(2-(6-(Trifluoromethyl)imidazo[1,2-a]pyrazin-3-yl)pyrimidin-4-yl)pyrrolidin-3-yl)ethan-1-ol] | 5.30 to 6.30 | 6.00 to 7.00
9 | OCC1CCCN1c1ccnc(-c2cnc3cnc(C(F)(F)F)cn23)n1 (stereo not drawn) [IV-436, (1-(2-(6-(Trifluoromethyl)imidazo[1,2-a]pyrazin-3-yl)pyrimidin-4-yl)pyrrolidin-2-yl)methanol] | < 5.30 | 6.00 to 7.00
10 | OCCC1CCN(c2ccnc(-c3cnc4cnc(C(F)(F)F)cn34)n2)CC1 [IV-442, 2-(1-(2-(6-(Trifluoromethyl)imidazo[1,2-a]pyrazin-3-yl)pyrimidin-4-yl)piperidin-4-yl)ethan-1-ol] | < 5.30 | 6.00 to 7.00
11 | OCCC1CCCN(c2ccnc(-c3cnc4cnc(C(F)(F)F)cn34)n2)C1 (stereo not drawn) [IV-444, 2-(1-(2-(6-(Trifluoromethyl)imidazo[1,2-a]pyrazin-3-yl)pyrimidin-4-yl)piperidin-3-yl)ethan-1-ol] | < 5.30 | 6.00 to 7.00
12 | FC(F)(F)c1cn2c(-c3nccc(-c4cnn(C5CCOC5)c4)n3)cnc2cn1 (stereo not drawn) [IV-449, 3-(4-(1-(Tetrahydrofuran-3-yl)-1H-pyrazol-4-yl)pyrimidin-2-yl)-6-(trifluoromethyl)imidazo[1,2-a]pyrazine] | < 5.30 | 6.00 to 7.00
13 | Cc1[nH]ncc1C1CCCN(c2ccnc(-c3cnc4cnc(C(F)(F)F)cn34)n2)C1 (stereo not drawn) [IV-452, 3-(4-(3-(5-Methyl-1H-pyrazol-4-yl)piperidin-1-yl)pyrimidin-2-yl)-6-(trifluoromethyl)imidazo[1,2-a]pyrazine] | 5.30 to 6.30 | > 8.00
14 | CC1C(c2cn[nH]c2)NCCN1c1ccnc(-c2cnc3cnc(C(F)F)cn23)n1 (stereo not drawn) [IV-454, 6-(Difluoromethyl)-3-(4-(2-methyl-3-(1H-pyrazol-4-yl)piperazin-1-yl)pyrimidin-2-yl)imidazo[1,2-a]pyrazine] | 5.30 to 6.30 | 7.00 to 8.00
15 | FC(F)OC1CC(c2cn[nH]c2)CN(c2ccnc(-c3cnc4cnc(C(F)(F)F)cn34)n2)C1 (stereo not drawn) [IV-466, 3-(4-(3-(Difluoromethoxy)-5-(1H-pyrazol-4-yl)piperidin-1-yl)pyrimidin-2-yl)-6-(trifluoromethyl)imidazo[1,2-a]pyrazine] | 5.30 to 6.30 | > 8.00
16 | FC(F)OC1CC(c2cn[nH]c2)CN(c2ccnc(-c3cnc4cnc(C(F)(F)F)cn34)n2)C1 (stereo not drawn) [IV-472, 3-(4-(3-(Difluoromethoxy)-5-(1H-pyrazol-4-yl)piperidin-1-yl)pyrimidin-2-yl)-6-(trifluoromethyl)imidazo[1,2-a]pyrazine] | 5.30 to 6.30 | 7.00 to 8.00
17 | O=C1NCC2CN(c3ccnc(-c4cnc5cnc(C(F)(F)F)cn45)n3)CCN12 (stereo not drawn) [IV-480, 7-(2-(6-(Trifluoromethyl)imidazo[1,2-a]pyrazin-3-yl)pyrimidin-4-yl)hexahydroimidazo[1,5-a]pyrazin-3(2H)-one] | < 5.30 | 6.00 to 7.00
18 | CC1C(c2cn[nH]c2)CCCN1c1nccc(-c2cnc3cnc(C(F)(F)F)cn23)n1 (stereo not drawn) [IV-485, 3-(2-(2-Methyl-3-(1H-pyrazol-4-yl)piperidin-1-yl)pyrimidin-4-yl)-6-(trifluoromethyl)imidazo[1,2-a]pyrazine] | > 6.30 | > 8.00
19 | FC(F)(F)c1cn2c(-c3nccc(N4CCCC(n5ccnn5)C4)n3)cnc2cn1 (stereo not drawn) [IV-493, 3-(4-(3-(1H-1,2,3-Triazol-1-yl)piperidin-1-yl)pyrimidin-2-yl)-6-(trifluoromethyl)imidazo[1,2-a]pyrazine] | < 5.30 | 7.00 to 8.00
20 | FC(F)(F)c1cn2c(-c3nccc(N4CCC(c5cn[nH]c5)C4)n3)cnc2cn1 (stereo not drawn) [IV-494, 3-(4-(3-(1H-Pyrazol-4-yl)pyrrolidin-1-yl)pyrimidin-2-yl)-6-(trifluoromethyl)imidazo[1,2-a]pyrazine] | 5.30 to 6.30 | 7.00 to 8.00
21 | Fc1n[nH]cc1C1CCN(c2ccnc(-c3cnc4cnc(C(F)(F)F)cn34)n2)C1 (stereo not drawn) [IV-524, 3-(4-(3-(3-Fluoro-1H-pyrazol-4-yl)pyrrolidin-1-yl)pyrimidin-2-yl)-6-(trifluoromethyl)imidazo[1,2-a]pyrazine] | > 6.30 | > 8.00
22 | CC1CN(c2ccnc(-c3cnc4cnc(C(F)(F)F)cn34)n2)C(C)C(c2c[nH]cn2)O1 (stereo not drawn) [IV-525, 2-(1H-Imidazol-4-yl)-3,6-dimethyl-4-(2-(6-(trifluoromethyl)imidazo[1,2-a]pyrazin-3-yl)pyrimidin-4-yl)morpholine] | 5.30 to 6.30 | > 8.00

Continued, values first:

Row | pIC50 [1] | pKi [2] | Compound
23 | < 5.30 | 6.00 to 7.00 | FC(F)(F)c1cn2c(-c3nccc(N4CCCCC4)n3)cnc2cn1 [IV-423, 3-(4-(Piperidin-1-yl)pyrimidin-2-yl)-6-(trifluoromethyl)imidazo[1,2-a]pyrazine]
24 | < 5.30 | 6.00 to 7.00 | CC1CCCN(c2ccnc(-c3cnc4cnc(C(F)(F)F)cn34)n2)C1 (stereo not drawn) [IV-424, 3-(4-(3-Methylpiperidin-1-yl)pyrimidin-2-yl)-6-(trifluoromethyl)imidazo[1,2-a]pyrazine]
25 | < 5.30 | 6.00 to 7.00 | NC(=O)C1COCCN(c2ccnc(-c3cnc4cnc(C(F)(F)F)cn34)n2)C1 (stereo not drawn) [IV-425, 4-(2-(6-(Trifluoromethyl)imidazo[1,2-a]pyrazin-3-yl)pyrimidin-4-yl)-1,4-oxazepane-6-carboxamide]
26 | < 5.30 | 6.00 to 7.00 | FC(F)(F)c1cn2c(-c3nccc(N4CCOCC4)n3)cnc2cn1 [IV-426, 4-(2-(6-(Trifluoromethyl)imidazo[1,2-a]pyrazin-3-yl)pyrimidin-4-yl)morpholine]
27 | < 5.30 | 6.00 to 7.00 | FC(F)(F)c1cn2c(-c3nccc(N4CCCOCC4)n3)cnc2cn1 [IV-427, 4-(2-(6-(Trifluoromethyl)imidazo[1,2-a]pyrazin-3-yl)pyrimidin-4-yl)-1,4-oxazepane]
28 | < 5.30 | 6.00 to 7.00 | OC1CCCN(c2ccnc(-c3cnc4cnc(C(F)(F)F)cn34)n2)C1 (stereo not drawn) [IV-437, 1-(2-(6-(Trifluoromethyl)imidazo[1,2-a]pyrazin-3-yl)pyrimidin-4-yl)piperidin-3-ol]
29 | < 5.30 | 6.00 to 7.00 | OCC1CCCN(c2ccnc(-c3cnc4cnc(C(F)(F)F)cn34)n2)C1 (stereo not drawn) [IV-439, (1-(2-(6-(Trifluoromethyl)imidazo[1,2-a]pyrazin-3-yl)pyrimidin-4-yl)piperidin-3-yl)methanol]
30 | < 5.30 | 6.00 to 7.00 | OCC1CCN(c2ccnc(-c3cnc4cnc(C(F)(F)F)cn34)n2)CC1 [IV-443, (1-(2-(6-(Trifluoromethyl)imidazo[1,2-a]pyrazin-3-yl)pyrimidin-4-yl)piperidin-4-yl)methanol]
31 | < 5.30 | 6.00 to 7.00 | OC1CCCN(c2ccnc(-c3cnc4cnc(C(F)(F)F)cn34)n2)CC1 (stereo not drawn) [IV-447, 1-(2-(6-(Trifluoromethyl)imidazo[1,2-a]pyrazin-3-yl)pyrimidin-4-yl)azepan-4-ol]
32 | < 5.30 | 6.00 to 7.00 | NCCC1CCCN(c2ccnc(-c3cnc4cnc(C(F)(F)F)cn34)n2)C1 (stereo not drawn) [IV-488]
33 | < 5.30 | 6.00 to 7.00 | COCC1CCCN(c2ccnc(-c3cnc4cnc(C(F)(F)F)cn34)n2)C1 (stereo not drawn) [IV-495, 3-(4-(3-(Methoxymethyl)piperidin-1-yl)pyrimidin-2-yl)-6-(trifluoromethyl)imidazo[1,2-a]pyrazine]
